Values of other authors as cited in patent US20160030582A1 (MAYNE PHARMA INTERNATIONAL PTY. LTD., priority 2012, published 2016).
Where two headings read alike, the source gives them in different places.

Assays:
[1] = tested on: typical infecting organisms for specific superficial and systemic mycoses; parameters: MIC90: unit not given here; conditions: for MIC RANGE: in µg/mL
[2] = Aspergillosis, A. flavus complex
[3] = Aspergillosis, A. fumigatus complex
[4] = Aspergillosis, A. nidulans complex
[5] = Aspergillosis, A. niger complex
[6] = Aspergillosis, A. terreus complex
[7] = tinea capitis, Microsporum sp. (audounti, canis, gypseum, ferrugineum et al.)
[8] = tinea capitis, Trichophyton sp. (tonsurans violaceum, soudanese, schoenleinii, mentagrophytes, verrucossum, et al.)
[9] = tinea corporis, Epidermophyton floccosum
[10] = tinea corporis, Microsporum sp. (canis, gypseum, et al.)
[11] = tinea corporis, Trichophyton sp. (rubrum, tonsurans interdigitale, mentagrophytes, concentricim, violaceum et al.)
[12] = tinea cruris, Epidermophyton floccosum
[13] = tinea cruris, Microsporum sp. (canis, et al.)
[14] = tinea cruris, Trichophyton sp. (rubrum, tonsurans interdigitale, mentagrophytes, et al.)
[15] = tinea manuum, Epidermophyton floccosum
[16] = tinea manuum, Trichophyton sp. (rubrum, interdigitale, mentagrophytes.)
[17] = tinea pedis, Epidermophyton floccosum
[18] = tinea pedis, Microsporum sp. (canis, gypseum, et al.)
[19] = tinea pedis, Trichophyton sp. (rubrum, tonsurans interdigitale, mentagrophytes, et al.)
[20] = tinea unguium, Epidermophyton floccosum
[21] = tinea unguium, Microsporum sp. (canis, et al.)
[22] = tinea unguium, Trichophyton sp. (rubrum, tonsurans interdigitale, mentagrophytes, et al.)

CCC(C)n1ncn(-c2ccc(N3CCN(c4ccc(OCC5COC(Cn6cncn6)(c6ccc(Cl)cc6Cl)O5)cc4)CC3)cc2)c1=O (centres unmarked) [itraconazole]
expected apparent plasma terminal elimination half-life (t½) (basis for sampling schedule of Example 12): 22 h
reduction of Cmax and AUC in the fasting state (compared to administration after a light meal): 50-70%
excreted unchanged in the feces (oral dose): 3-18%
MIC90 [1]: MIC90 = 0.06
MIC90 [1, 2]: MIC90 = 0.5
MIC RANGE [1, 2]: 0.03-8
MIC90 [1, 3]: MIC90 = 0.5
MIC RANGE [1, 3]: 0.03-16
MIC90 [1, 4]: MIC90 = 0.25
MIC RANGE [1, 4]: 0.03-8
MIC90 [1, 5]: MIC90 = 0.5
MIC RANGE [1, 5]: 0.03-8
MIC90 [1, 6]: MIC90 = 0.25
MIC RANGE [1, 6]: 0.03-1
MIC90 ([1]; Candidiasis, C. albicans): MIC90 = 0.125
MIC RANGE ([1]; Candidiasis, C. albicans): 0.008-8
MIC RANGE ([1]; Candidiasis, C. glabrata): 0.008-16
MIC RANGE ([1]; Candidiasis, C. kruset): 0.008-8
MIC RANGE ([1]; Candidiasis, C. tropicalis): 0.03-8
MIC RANGE ([1]; Pityriasis versicolor, Malassezia sp. (florfur, globosa, obtuse, sympodialis etc).): 0.3-16
MIC RANGE [1]: 0.03-8
MIC90 [1, 7]: MIC90 = 0.25-0.5
MIC RANGE [1, 7]: 0.01-4
MIC90 [1, 8]: MIC90 = 0.25-0.5
MIC RANGE [1, 8]: 0.01-8
MIC90 [1, 9]: MIC90 = 0.125
MIC RANGE [1, 9]: 0.01-8
MIC90 [1, 10]: MIC90 = 0.25-0.5
MIC RANGE [1, 10]: 0.01-4
MIC90 [1, 11]: MIC90 = 0.25-0.5
MIC RANGE [1, 11]: 0.01-8
MIC90 [1, 12]: MIC90 = 0.125
MIC RANGE [1, 12]: 0.01-8
MIC90 [1, 13]: MIC90 = 0.25-0.5
MIC RANGE [1, 13]: 0.01-4
MIC90 [1, 14]: MIC90 = 0.25-0.5
MIC RANGE [1, 14]: 0.01-8
MIC90 [1, 15]: MIC90 = 0.125
MIC RANGE [1, 15]: 0.01-8
MIC90 [1, 16]: MIC90 = 0.25-0.5
MIC RANGE [1, 16]: 0.01-8
MIC90 [1, 17]: MIC90 = 0.125
MIC RANGE [1, 17]: 0.01-8
MIC90 [1, 18]: MIC90 = 0.25-0.5
MIC RANGE [1, 18]: 0.01-4
MIC90 [1, 19]: MIC90 = 0.25-0.5
MIC RANGE [1, 19]: 0.01-8
MIC90 [1, 20]: MIC90 = 0.125
MIC RANGE [1, 20]: 0.01-8
MIC90 [1, 21]: MIC90 = 0.25-0.5
MIC RANGE [1, 21]: 0.01-4
MIC90 [1, 22]: MIC90 = 0.25-0.5
MIC RANGE [1, 22]: 0.01-8
